Measured values from patent publication US9562035B2, “Benzamide derivative useful as FASN inhibitors for the treatment of cancer” (Janssen Pharmaceutica NV, priority 2013, dated 2017).

What was measured:
[1] = target: T1, hFASN enzyme (full length) (Homo sapiens, UniProt P49327); assay: Fatty Acid Synthase (FASN) Inhibition Scintillation Proximity Assay; assay type: biochemical; conditions: for IC50: mean where tested more than once, ~ = standard error of pIC50 larger than 0.5; for inhibition at 10 µM: read-out: FASN % Effect @1E−05M
T1 construct: 10 μL hFASN enzyme (full length, 300 ng, purified in house); made in house
T1 sequence (P49327 whole entry): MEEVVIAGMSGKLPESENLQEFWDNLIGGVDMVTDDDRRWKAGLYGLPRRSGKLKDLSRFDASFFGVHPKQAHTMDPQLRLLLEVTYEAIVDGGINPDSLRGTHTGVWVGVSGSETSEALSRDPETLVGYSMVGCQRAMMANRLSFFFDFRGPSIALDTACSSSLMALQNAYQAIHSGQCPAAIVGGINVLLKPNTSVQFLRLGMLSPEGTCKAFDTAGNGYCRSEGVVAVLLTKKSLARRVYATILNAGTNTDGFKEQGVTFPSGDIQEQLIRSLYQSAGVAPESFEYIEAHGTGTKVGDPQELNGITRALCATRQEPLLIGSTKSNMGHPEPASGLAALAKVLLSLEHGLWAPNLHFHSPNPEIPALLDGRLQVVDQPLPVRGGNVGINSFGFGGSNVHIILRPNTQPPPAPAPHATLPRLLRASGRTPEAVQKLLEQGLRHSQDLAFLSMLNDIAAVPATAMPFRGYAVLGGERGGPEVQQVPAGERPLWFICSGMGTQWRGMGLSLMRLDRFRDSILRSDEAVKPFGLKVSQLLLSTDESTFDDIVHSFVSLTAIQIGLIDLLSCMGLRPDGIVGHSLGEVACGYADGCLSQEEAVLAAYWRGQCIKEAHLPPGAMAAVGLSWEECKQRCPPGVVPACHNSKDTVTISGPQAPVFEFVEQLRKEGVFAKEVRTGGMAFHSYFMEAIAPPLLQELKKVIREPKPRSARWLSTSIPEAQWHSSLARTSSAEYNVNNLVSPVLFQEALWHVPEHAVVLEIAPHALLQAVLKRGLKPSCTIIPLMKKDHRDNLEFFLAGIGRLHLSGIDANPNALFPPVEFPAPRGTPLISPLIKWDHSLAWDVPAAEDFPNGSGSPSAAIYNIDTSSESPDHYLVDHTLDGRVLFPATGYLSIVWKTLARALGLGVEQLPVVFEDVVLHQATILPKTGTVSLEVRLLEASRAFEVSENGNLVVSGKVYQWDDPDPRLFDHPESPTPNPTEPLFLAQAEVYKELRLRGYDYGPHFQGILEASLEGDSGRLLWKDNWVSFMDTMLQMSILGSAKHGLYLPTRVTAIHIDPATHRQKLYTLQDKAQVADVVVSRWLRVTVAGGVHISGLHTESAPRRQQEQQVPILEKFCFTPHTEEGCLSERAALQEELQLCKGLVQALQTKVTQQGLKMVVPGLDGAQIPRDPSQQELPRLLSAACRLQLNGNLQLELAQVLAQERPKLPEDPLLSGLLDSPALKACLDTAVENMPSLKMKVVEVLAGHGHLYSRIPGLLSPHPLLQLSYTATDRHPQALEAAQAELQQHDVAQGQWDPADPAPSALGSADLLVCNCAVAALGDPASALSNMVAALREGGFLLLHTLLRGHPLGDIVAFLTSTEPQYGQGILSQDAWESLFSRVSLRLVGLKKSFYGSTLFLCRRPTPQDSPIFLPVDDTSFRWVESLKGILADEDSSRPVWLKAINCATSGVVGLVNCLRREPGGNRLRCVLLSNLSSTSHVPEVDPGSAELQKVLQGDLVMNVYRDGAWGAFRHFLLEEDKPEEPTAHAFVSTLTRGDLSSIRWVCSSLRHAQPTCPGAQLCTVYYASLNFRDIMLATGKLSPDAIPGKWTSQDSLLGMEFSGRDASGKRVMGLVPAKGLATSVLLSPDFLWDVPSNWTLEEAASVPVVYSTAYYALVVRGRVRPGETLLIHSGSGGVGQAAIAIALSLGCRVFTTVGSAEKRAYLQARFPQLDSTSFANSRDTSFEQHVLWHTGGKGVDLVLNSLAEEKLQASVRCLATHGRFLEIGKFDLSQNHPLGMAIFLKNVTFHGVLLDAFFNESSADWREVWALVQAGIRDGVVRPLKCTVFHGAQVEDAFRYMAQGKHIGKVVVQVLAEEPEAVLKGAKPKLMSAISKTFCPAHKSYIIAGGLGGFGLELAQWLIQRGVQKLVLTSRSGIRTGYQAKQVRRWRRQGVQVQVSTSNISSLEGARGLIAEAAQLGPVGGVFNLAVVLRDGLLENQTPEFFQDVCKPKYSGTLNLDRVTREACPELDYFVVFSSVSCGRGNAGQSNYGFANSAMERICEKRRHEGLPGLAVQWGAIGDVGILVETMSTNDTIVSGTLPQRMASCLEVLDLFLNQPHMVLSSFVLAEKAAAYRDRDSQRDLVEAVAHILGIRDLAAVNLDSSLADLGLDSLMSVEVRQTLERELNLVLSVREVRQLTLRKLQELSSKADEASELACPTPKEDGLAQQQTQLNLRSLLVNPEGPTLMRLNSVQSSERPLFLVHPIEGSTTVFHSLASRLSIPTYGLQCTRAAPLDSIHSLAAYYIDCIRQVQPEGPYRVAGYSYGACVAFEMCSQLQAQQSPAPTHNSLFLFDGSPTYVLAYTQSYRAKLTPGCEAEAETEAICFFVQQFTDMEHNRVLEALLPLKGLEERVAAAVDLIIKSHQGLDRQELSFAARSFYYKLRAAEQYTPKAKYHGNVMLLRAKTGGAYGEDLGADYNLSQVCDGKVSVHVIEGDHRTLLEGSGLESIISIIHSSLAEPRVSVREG
How it was run: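 Purified full-length human FASN (300 ng) incubated 60 min at room temperature with NADPH, [3H]-acetyl-CoA and malonyl-CoA in 100 mM KH2PO4 pH 7.5, 1 mM DTT; compound at 30 μM to 0.01 μM. [3H]-palmitate captured by SPA imaging beads; IC50 from 4-parameter fit, reported as pIC50.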

[2] = system: A2780 ovarian cells; assay: A2780 Ovarian Cell Proliferation Assay in Lipid Reduced Medium, with Palmitate (control); assay type: cell-based; conditions: Homo sapiens, A2780; lipid reduced medium, 25 μM palmitate, 96 h, MTT; read-out: Proliferation A2780 with Palmitate pIC50 (converted)
How it was run: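 A2780 cells were seeded in RPMI1640 with 10% FCS, then switched next day to medium with 10% lipid-reduced serum. Compound was added with final 25 μM palmitate, 0.2% fatty-acid-free BSA and 0.2% DMSO, and incubated 96 h at 37 °C. Read-out was MTT absorbance at 544 nm; pIC50 = −log(IC50) from curve fit.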

[3] = system: A2780 ovarian cells; assay: A2780 Ovarian Cell Proliferation Assay in Lipid Reduced Medium, without Palmitate; assay type: cell-based; conditions: Homo sapiens, A2780; lipid reduced medium, without palmitate, 96 h, MTT; read-out: Proliferation A2780 w/o Palmitate pIC50 (converted)
How it was run: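 A2780 cells were seeded in 10% FCS medium and switched next day to 10% lipid-reduced serum without palmitate. Compounds at 0.01–30 μM were added with 0.2% DMSO, 0.2% fatty-acid-free BSA and 0.25% ethanol final. After 96 h, MTT absorbance at 544 nm was normalized to plate controls, and IC50/pIC50 came from a 4-parameter logistic fit.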

[4] = target: T2, FASN Keto-reductase Domain (Homo sapiens, UniProt P49327); assay: Fatty Acid Synthase Keto-Reductase Domain (FASN KR) Inhibition; assay type: biochemical; conditions: mean where tested more than once; read-out: FASN K-R Domain pIC50 (converted)
T2 construct: 10 μL hFASN enzyme (full length, 300 ng, purified in house) and 360 μM NADPH; made in house
T2 sequence (P49327 whole entry, the tested form may be a part): as the sequence (P49327 whole entry) above
How it was run: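 Full-length human FASN (300 ng) in 100 mM KH2PO4 pH 7.5 with 360 μM NADPH and 180 mM ethyl acetoacetate (stock); A340 decrease read over 20 min at room temperature.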

SMILES	IC50 [1]	inhibition at 10 µM [1]	IC50 [2]	IC50 [3]	IC50 [4]
CCc1ccc(C(=O)N2CCC(c3ccc(-c4cnn(C)c4)cc3)CC2)cc1NC(=O)c1ccc(Cl)nc1 [Compound #255, 6-chloro-N-(2-ethyl-5-(4-(4-(1-methyl-1H-pyrazol-4-yl)phenyl)piperidine-1-carbonyl)phenyl)nicotinamide]	24 nM	113%	> 10 µM	39.8 nM	72.4 nM
Cc1ccc(C(=O)N2CCC(c3ccc4[nH]c(=O)sc4c3)CC2)cc1NC(=O)c1ccc(NC(C)C)nc1 [Compound 49, 6-(isopropylamino)-N-(2-methyl-5-(4-(2-oxo-2,3-dihydrobenzo[d]thiazol-6-yl)piperidine-1-carbonyl)phenyl)nicotinamide]	120 nM	97%	> 10 µM	813 nM	229 nM
Cc1ccc(C(=O)N2CCC(c3ccc(-c4cnn(C)c4)cc3)CC2)cc1NC(=O)c1nccs1 [Compound 198, N-(2-methyl-5-(4-(4-(1-methyl-1H-pyrazol-4-yl)phenyl)piperidine-1-carbonyl)phenyl)thiazole-2-carboxamide]	135 nM	100%	> 10 µM	603 nM	372 nM
Cc1ccc(C(=O)N2CCC(c3ccc(-c4cnn(C)c4)cc3)C2)cc1NC(=O)c1ccc(N2CCOCC2)nc1 (stereo not shown) [Compound 204, N-(2-methyl-5-(3-(4-(1-methyl-1H-pyrazol-4-yl)phenyl)pyrrolidine-1-carbonyl)phenyl)-6-morpholinonicotinamide]	129 nM	107%	> 10 µM	107 nM	398 nM
Cc1ccc(C(=O)N2CC(c3ccc(-c4ccnn4C)cc3)C2)cc1NC(=O)c1ccc(N(C)C(C)C)nc1 [Compound 60, 6-(isopropyl(methyl)amino)-N-(2-methyl-5-(3-(4-(1-methyl-1H-pyrazol-5-yl)phenyl)azetidine-1-carbonyl)phenyl)nicotinamide]	19.5 nM	103%	2.75 µM	51.3 nM	28.8 nM
Cc1ccc(C(=O)N2CCC(c3ccc(-c4cnn(C)c4)cc3)CC2)cc1NC(=O)c1ccc(C#N)cc1F [Compound 129, 4-cyano-2-fluoro-N-(2-methyl-5-(4-(4-(1-methyl-1H-pyrazol-4-yl)phenyl)piperidine-1-carbonyl)phenyl)benzamide]	22.9 nM	104%	> 10 µM	21.4 nM	34.7 nM
Cc1ccc(C(=O)N2CCC(c3ccc(-c4cnn(C)c4)cc3)CC2)cc1NC(=O)c1ccc(F)cc1Cl [Compound 147, 2-chloro-4-fluoro-N-(2-methyl-5-(4-(4-(1-methyl-1H-pyrazol-4-yl)phenyl)piperidine-1-carbonyl)phenyl)benzamide]	34.7 nM	107%	> 10 µM	234 nM	138 nM
Cc1ccc(C(=O)N2CCC(c3ccc(-c4cnn(C)c4)cc3)CC2)cc1NC(=O)c1ccc2c(c1)OCO2 [Compound 133, N-(2-methyl-5-(4-(4-(1-methyl-1H-pyrazol-4-yl)phenyl)piperidine-1-carbonyl)phenyl)benzo[d][1,3]dioxole-5-carboxamide]	37.2 nM	96%	> 10 µM	91.2 nM	74.1 nM
CCCCN1CC(C(=O)Nc2cc(C(=O)N3CCC(c4ccc(-c5cnn(C)c5)cc4)CC3)ccc2C)C1 [Compound 242, 1-butyl-N-(2-methyl-5-(4-(4-(1-methyl-1H-pyrazol-4-yl)phenyl)piperidine-1-carbonyl)phenyl)azetidine-3-carboxamide]	72.4 nM	105%	> 10 µM	95.5 nM	158 nM
Cc1ccc(C(=O)N2CCC(c3ccc(-c4cnn(C)c4)cc3)CC2)cc1NC(=O)c1c(Cl)cccc1Cl [Compound 121, 2,6-dichloro-N-(2-methyl-5-(4-(4-(1-methyl-1H-pyrazol-4-yl)phenyl)piperidine-1-carbonyl)phenyl)benzamide]	380 nM	87%	8.51 µM	1000 nM	794 nM
CCCCC(C)N1CCC(C(=O)Nc2cc(C(=O)N3CCC(c4ccc(-c5cnn(C)c5)cc4)CC3)ccc2C)CC1 (stereo not shown) [Compound 175, 1-(hexan-2-yl)-N-(2-methyl-5-(4-(4-(1-methyl-1H-pyrazol-4-yl)phenyl)piperidine-1-carbonyl)phenyl)piperidine-4-carboxamide]	49 nM	108%	~10 µM	38.9 nM	77.6 nM

Continued by falling IC50 [1], values first:

IC50 [1]	inhibition at 10 µM [1]	IC50 [2]	IC50 [3]	IC50 [4]	SMILES
245 nM	99%	> 10 µM	389 nM	1230 nM	Cc1ccc(C(=O)N2CCC(c3ncc(-c4cnn(C)c4)cn3)CC2)cc1NC(=O)c1ccc(NC(C)C)nc1 [Compound 258, 6-(isopropylamino)-N-(2-methyl-5-(4-(5-(1-methyl-1H-pyrazol-4-yl)pyrimidin-2-yl)piperidine-1-carbonyl)phenyl)nicotinamide]
174 nM	105%	> 10 µM	214 nM	501 nM	Cc1ccc(C(=O)N2CCC(c3ccc(-c4cnn(C5CCOCC5)c4)cc3)CC2)cc1NC(=O)c1ccc(NC(C)C)nc1 [Compound 217]
166 nM	106%	1.45 µM	347 nM	437 nM	Cc1ccc(C(=O)N2CCC(c3ccc(-c4ccco4)cc3)CC2)cc1NC(=O)c1ccc(NC(C)C)nc1 [Compound 252, N-(5-(4-(4-(furan-2-yl)phenyl)piperidine-1-carbonyl)-2-methylphenyl)-6-(isopropylamino)nicotinamide]
83.2 nM	106%	> 10 µM	162 nM	407 nM	Cc1ccc(C(=O)N2CCC(c3ccc(-c4cnn(C)c4)cc3)CC2)cc1NC(=O)C1CN(C2CCC2)C1 [Compound 240, 1-cyclobutyl-N-(2-methyl-5-(4-(4-(1-methyl-1H-pyrazol-4-yl)phenyl)piperidine-1-carbonyl)phenyl)azetidine-3-carboxamide]
60.3 nM	107%	3.31 µM	112 nM	126 nM	Cc1ccc(C(=O)N2CCC(c3ccc(-c4cnn(-c5cccnc5)c4)cc3)CC2)cc1NC(=O)c1ccc(NC(C)C)nc1 [Compound 261, 6-(isopropylamino)-N-(2-methyl-5-(4-(4-(1-(pyridin-3-yl)-1H-pyrazol-4-yl)phenyl)piperidine-1-carbonyl)phenyl)nicotinamide]
43.7 nM	108%	3.55 µM	35.5 nM	93.3 nM	Cc1ccc(C(=O)N2CCC(c3ccc(-c4cnn(C5CCC5)c4)cc3)CC2)cc1NC(=O)c1ccc(NC(C)C)nc1 [Compound 248, N-(5-(4-(4-(1-cyclobutyl-1H-pyrazol-4-yl)phenyl)piperidine-1-carbonyl)-2-methylphenyl)-6-(isopropylamino)nicotinamide]
39.8 nM	109%	> 10 µM	174 nM	97.7 nM	Cc1ccc(C(=O)N2CC(c3ccc(-c4cnn(C)c4)cc3)C2)cc1NC(=O)c1ccc(Cl)nc1 [Compound 4, 6-chloro-N-(2-methyl-5-(3-(4-(1-methyl-1H-pyrazol-4-yl)phenyl)azetidine-1-carbonyl)phenyl)nicotinamide]
31.6 nM	118%	5.25 µM	195 nM	64.6 nM	CC(C)Nc1ccc(C(=O)Nc2cc(C(=O)N3CCC(c4ccc(-c5ccnc6ccccc56)cc4)CC3)ccc2Cl)cn1 [Compound 68, N-(2-chloro-5-(4-(4-(quinolin-4-yl)phenyl)piperidine-1-carbonyl)phenyl)-6-(isopropylamino)nicotinamide]
11.2 nM	109%	> 10 µM	15.8 nM	25.1 nM	Cc1ccc(C(=O)N2CCC(c3ccc(-c4cnn(C)c4)cc3)CC2)cc1NC(=O)c1ccc(N2CCOCC2)nc1 [Compound #91, N-(2-methyl-5-(4-(4-(1-methyl-1H-pyrazol-4-yl)phenyl)piperidine-1-carbonyl)phenyl)-6-morpholinonicotinamide]
